What was measured:
Type in all cases: cell-based
SNB-19 = assay: NCI screen, growth of human tumor cells: CNS Cancer SNB-19; settings: SNB-19 (CNS Cancer), 10^−4 molar
Procedure, shortened: (§1)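 NCI screening: compound applied to tumor cell lines at a given molar concentration, growth measured as percent. Minimum 60 data points/compound; cancer type noted.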

NCI-H226 = assay: NCI screen, growth of human tumor cells: Non-Small Cell Lung NCI-H226; settings: NCI-H226 (Non-Small Cell Lung), 10^−4 molar
Procedure, shortened: as §1

HCT-116 = assay: NCI screen, growth of human tumor cells: Colon Cancer HCT-116; settings: HCT-116, 10^−4 molar
Procedure, shortened: as §1

SF-268 = assay: NCI screen, growth of human tumor cells: CNS Cancer SF-268; settings: SF-268 (CNS Cancer), 10^−4 molar
Procedure, shortened: as §1

EKVX = assay: NCI screen, growth of human tumor cells: Non-Small Cell Lung EKVX; settings: EKVX, 10^−4 molar
Procedure, shortened: as §1

HT29 = assay: NCI screen, growth of human tumor cells: Colon Cancer HT29; settings: HT29 (Colon Cancer), 10^−4 molar
Procedure, shortened: as §1

OVCAR-8 = assay: NCI screen, growth of human tumor cells: Ovarian Cancer OVCAR-8; settings: OVCAR-8 (Ovarian Cancer), 10^−4 molar
Procedure, shortened: as §1

RPMI-8226 = assay: NCI screen, growth of human tumor cells: Leukemia RPMI-8226; settings: RPMI-8226 (Leukemia), 10^−4 molar
Procedure, shortened: as §1

LOXIMVI = assay: NCI screen, growth of human tumor cells: Melanoma LOXIMVI; settings: LOXIMVI (Melanoma), 10^−4 molar
Procedure, shortened: as §1

UACC-257 = assay: NCI screen, growth of human tumor cells: Melanoma UACC-257; settings: UACC-257, 10^−4 molar
Procedure, shortened: as §1

SN12C = assay: NCI screen, growth of human tumor cells: Renal Cancer SN12C; settings: SN12C, 10^−4 molar
Procedure, shortened: as §1

SK-MEL-2 = assay: NCI screen, growth of human tumor cells: Melanoma SK-MEL-2; settings: SK-MEL-2, 10^−4 molar
Procedure, shortened: as §1

MDA-MB-231/ATCC = assay: NCI screen, growth of human tumor cells: Breast Cancer MDA-MB-231/ATCC; settings: MDA-MB-231/ATCC (Breast Cancer), 10^−4 molar
Procedure, shortened: as §1

NCI-H460 = assay: NCI screen, growth of human tumor cells: Non-Small Cell Lung NCI-H460; settings: NCI-H460 (Non-Small Cell Lung), 10^−4 molar
Procedure, shortened: as §1

SK-MEL-28 = assay: NCI screen, growth of human tumor cells: Melanoma SK-MEL-28; settings: SK-MEL-28 (Melanoma), 10^−4 molar
Procedure, shortened: as §1

DU-145 = assay: NCI screen, growth of human tumor cells: Prostate Cancer DU-145; settings: DV-145, 10^−4 molar
Procedure, shortened: as §1

MCF 7 = assay: NCI screen, growth of human tumor cells: Breast Cancer MCF 7; settings: MCF 7 (Breast Cancer), 10^−4 molar
Procedure, shortened: as §1

OVCAR-3 = assay: NCI screen, growth of human tumor cells: Ovarian Cancer OVCAR-3; settings: OVCAR-3, 10^−4 molar
Procedure, shortened: as §1

COLO205 = assay: NCI screen, growth of human tumor cells: Colon Cancer COLO205; settings: COLO205, 10^−4 molar
Procedure, shortened: as §1

ACHN = assay: NCI screen, growth of human tumor cells: Renal Cancer ACHN; settings: ACHN, 10^−4 molar
Procedure, shortened: as §1

BT-549 = assay: NCI screen, growth of human tumor cells: Breast Cancer BT-549; settings: BT-549 (Breast Cancer), 10^−4 molar
Procedure, shortened: as §1

CAKI-1 = assay: NCI screen, growth of human tumor cells: Renal Cancer CAKI-1; settings: CAKI-1 (Renal Cancer), 10^−4 molar
Procedure, shortened: as §1

TK-10 = assay: NCI screen, growth of human tumor cells: Renal Cancer TK-10; settings: TK-10, 10^−4 molar
Procedure, shortened: as §1

KM12 = assay: NCI screen, growth of human tumor cells: Colon Cancer KM12; settings: KM12, 10^−4 molar
Procedure, shortened: as §1

UACC-62 = assay: NCI screen, growth of human tumor cells: Melanoma UACC-62; settings: UACC-62, 10^−4 molar
Procedure, shortened: as §1

SR = assay: NCI screen, growth of human tumor cells: Leukemia SR; settings: SR (Leukemia), 10^−4 molar
Procedure, shortened: as §1

PC-3 = assay: NCI screen, growth of human tumor cells: Prostate Cancer PC-3; settings: PC-3, 10^−4 molar
Procedure, shortened: as §1

OVCAR-4 = assay: NCI screen, growth of human tumor cells: Ovarian Cancer OVCAR-4; settings: OVCAR-4, 10^−4 molar
Procedure, shortened: as §1

MCF7/ADR-RES = assay: NCI screen, growth of human tumor cells: Breast Cancer MCF7/ADR-RES; settings: MCF7/ADR-RES (Breast Cancer), 10^−4 molar
Procedure, shortened: as §1

K562 = assay: NCI screen, growth of human tumor cells: Leukemia K562; settings: K562 (Leukemia), 10^−4 molar
Procedure, shortened: as §1

SF-295 = assay: NCI screen, growth of human tumor cells: CNS Cancer SF-295; settings: SF-295 (CNS Cancer), 10^−4 molar
Procedure, shortened: as §1

SK-MEL-5 = assay: NCI screen, growth of human tumor cells: Melanoma SK-MEL-5; settings: SK-MEL-5 (Melanoma), 10^−4 molar
Procedure, shortened: as §1

SNB-75 = assay: NCI screen, growth of human tumor cells: CNS Cancer SNB-75; settings: SNB-75, 10^−4 molar
Procedure, shortened: as §1

OVCAR-5 = assay: NCI screen, growth of human tumor cells: Ovarian Cancer OVCAR-5; settings: OVCAR-5, 10^−4 molar
Procedure, shortened: as §1

U-251 = assay: NCI screen, growth of human tumor cells: CNS Cancer U-251; settings: U-251 (CNS Cancer), 10^−4 molar
Procedure, shortened: as §1

NCI-H322M = assay: NCI screen, growth of human tumor cells: Non-Small Cell Lung NCI-H322M; settings: NCI-H322M, 10^−4 molar
Procedure, shortened: as §1

For `CC1(C)OCC(COC(=O)C(=O)C2(Cc3ccc4c(c3)C(=O)c3ccccc3C4=O)S(=O)(=O)OCCOS2(=O)=O)O1` (stereo not drawn) [NSC 737276], which “percent of growth of human tumor cells” value (SNB-19) is on record?
The value was −59%.

What about the “percent of growth of human tumor cells” value (NCI-H226) of the same compound?
The value was 10%.

What about the “% Growth” value (HCT-116) of the same compound?
Its value is −86%.

What about the “percent of growth of human tumor cells” value (SF-268) of the same compound?
The value was −40%.

And the “% Growth” value (EKVX)?
The value was −81%.

And the “percent of growth of human tumor cells” value (HT29)?
Its value is −25%.

What about the “percent of growth of human tumor cells” value (OVCAR-8) of the same compound?
Its value is 5%.

What about the “percent of growth of human tumor cells” value (RPMI-8226) of the same compound?
Its value is −35%.

What about the “percent of growth of human tumor cells” value (LOXIMVI) of the same compound?
The value was −48%.

And the “% Growth” value (UACC-257)?
The value was −76%.

And the “% Growth” value (SN12C)?
The value was −64%.

And the “% Growth” value (SK-MEL-2)?
Its value is −62%.

What about the “percent of growth of human tumor cells” value (MDA-MB-231/ATCC) of the same compound?
The value was −9%.

What about the “percent of growth of human tumor cells” value (NCI-H460) of the same compound?
The value was −59%.

What about the “percent of growth of human tumor cells” value (SK-MEL-28) of the same compound?
Its value is −52%.

And the “% Growth” value (DU-145)?
Its value is −81%.

And the “percent of growth of human tumor cells” value (MCF 7)?
Its value is −59%.

What about the “% Growth” value (OVCAR-3) of the same compound?
The value was −71%.

And the “% Growth” value (COLO205)?
Its value is −96%.

What about the “% Growth” value (ACHN) of the same compound?
The value was −82%.

And the “percent of growth of human tumor cells” value (BT-549)?
The value was −49%.

What about the “percent of growth of human tumor cells” value (CAKI-1) of the same compound?
Its value is 15%.

What about the “% Growth” value (TK-10) of the same compound?
Its value is −73%.

What about the “% Growth” value (KM12) of the same compound?
The value was −74%.

What about the “% Growth” value (UACC-62) of the same compound?
Its value is −91%.

And the “percent of growth of human tumor cells” value (SR)?
Its value is 12%.

And the “% Growth” value (PC-3)?
Its value is −68%.

And the “% Growth” value (OVCAR-4)?
Its value is −73%.

And the “percent of growth of human tumor cells” value (MCF7/ADR-RES)?
Its value is −29%.

And the “percent of growth of human tumor cells” value (K562)?
Its value is 29%.

And the “percent of growth of human tumor cells” value (SF-295)?
Its value is −12%.

What about the “percent of growth of human tumor cells” value (SK-MEL-5) of the same compound?
Its value is −4%.

And the “% Growth” value (SNB-75)?
Its value is −87%.

And the “% Growth” value (OVCAR-5)?
Its value is −89%.

What about the “percent of growth of human tumor cells” value (U-251) of the same compound?
Its value is −53%.

What about the “% Growth” value (NCI-H322M) of the same compound?
Its value is −87%.

Source: patent US8124793B2, “Derivatives of ethylene methanedisulfonate as cancer chemotherapeutic agents” (priority 2007, dated 2012)
